Results on 1 compound are retold here after patent US20030049712A1, “Method of detecting protease activity in a cell” (priority 2001, published 2003).

For this assay, the system named is caspase-3. In words: Caspase3 assay using an NES-protease cleavage-NLS fusion protein (EYFP translocation). It is filed as cell-based. The note with it: 3T3 cells transiently transfected with pCaspase3-sensor Vector; staurosporin 700 nM; detected 4 hours post induction; untreated cells: EYFP in the cytoplasm. The text has this:
A construct was generated that includes a nucleotide sequence encoding a fusion protein including, in order from amino to carboxyl terminus, an NES of MAP-kinase-kinase (NLVDLQKKLEELELDEQQ; SEQ ID NO: 23); a recognition site for caspase-3 (DEVD; SEQ ID NO: 22) bordered by a stretch of amino acids found in the cleavage site of the endogenous caspase-3 substrate poly (ADP-ribose) polymerase (PARP; Nicholson et al. (1995) Nature 376:37-43; and Tewari et al. (1995) Cell 81:801-809), such that the cleavage recognition site has the sequence KRKGDEVDGVDF (SEQ ID NO: 24); an enhanced yellow fluorescent protein (EYFP); and a three tandem repeat of the NLS from simian virus large T antigen. In this construct, the NES is dominant over the NLS.
The construct was transfected into mammalian cells. Specifically, 3T3 cells were grown on coverslips, transiently transfected with the pCaspase3-sensor Vector which is encodes the above described fusion protein and is further illustrated in Clontechniques (April, 2002), and grown for 24 hours. Apoptosis was induced using staurosporin (700 nM) and caspase-3 activity was detected 4 hours post induction. Cells were fixed with 3% paraformaldehyde and photomicrographs were taken using a Zeiss microscope.

In the case of `CN[C@@H]1C[C@H]2O[C@@](C)([C@@H]1OC)n1c3ccccc3c3c4c(c5c6ccccc6n2c5c31)C(=O)NC4` [staurosporin], the “caspase-3 activity read out as subcellular location of EYFP” value is on record as “the EYFP was detected in the nucleus”.
